In ChEMBL document CHEMBL5113375, “Development of Mcl-1 inhibitors for cancer therapy” (Eur J Med Chem, 2021):

How the values were obtained:
[1] = biological target: Induced myeloid leukemia cell differentiation protein Mcl-1/BH3-interacting domain death agonist (Homo sapiens, UniProt Q07820); assay: Binding affinity to Mcl-1/Bid (unknown origin) assessed as inhibition constant by fluorescence polarization assay; type: protein assay
BCL2/BID = BCL2/BID (Homo sapiens, UniProt P10415); assay: Binding affinity to Bcl-2 /Bid (unknown origin) assessed as inhibition constant by fluorescence polarization assay; type: protein assay
Sequence of BCL2/BID (P10415 whole entry): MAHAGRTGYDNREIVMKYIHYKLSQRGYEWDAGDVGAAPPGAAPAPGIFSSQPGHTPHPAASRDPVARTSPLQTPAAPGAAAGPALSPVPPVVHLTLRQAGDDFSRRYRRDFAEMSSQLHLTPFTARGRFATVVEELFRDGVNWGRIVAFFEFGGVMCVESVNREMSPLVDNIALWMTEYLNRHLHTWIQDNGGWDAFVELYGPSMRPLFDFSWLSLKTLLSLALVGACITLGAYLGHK
Sequence of BCL2/BID (P55957 whole entry, further chain): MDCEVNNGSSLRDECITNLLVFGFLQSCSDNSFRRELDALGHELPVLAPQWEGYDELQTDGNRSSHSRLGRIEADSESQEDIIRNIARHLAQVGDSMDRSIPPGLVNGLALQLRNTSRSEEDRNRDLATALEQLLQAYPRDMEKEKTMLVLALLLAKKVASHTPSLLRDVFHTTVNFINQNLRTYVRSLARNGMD

[2] = biological target: T1, Bcl-xL/Bcl-2-like protein 11 (Homo sapiens, UniProt Q07817); assay: Binding affinity to Bcl-xL/Bim (unknown origin) assessed as inhibition constant by fluorescence polarization assay; type: protein assay
T1 sequence (Q07817 whole entry): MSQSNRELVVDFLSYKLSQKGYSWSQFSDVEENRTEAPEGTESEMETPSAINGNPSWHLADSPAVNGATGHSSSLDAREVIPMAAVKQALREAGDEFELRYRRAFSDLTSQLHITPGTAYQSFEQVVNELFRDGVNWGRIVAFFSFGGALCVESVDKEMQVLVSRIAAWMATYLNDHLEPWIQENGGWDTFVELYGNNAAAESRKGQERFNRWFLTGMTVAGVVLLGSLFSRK
T1 sequence (O43521 whole entry, further chain): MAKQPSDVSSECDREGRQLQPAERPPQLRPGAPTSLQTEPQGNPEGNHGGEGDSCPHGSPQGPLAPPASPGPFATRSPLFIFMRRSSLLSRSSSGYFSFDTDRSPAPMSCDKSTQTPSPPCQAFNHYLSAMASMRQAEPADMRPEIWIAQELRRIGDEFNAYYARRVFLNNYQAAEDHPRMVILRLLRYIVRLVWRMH

MCL1-BAK1 complex [3] = biological target: T2, MCL1-BAK1 complex (Homo sapiens, UniProt Q07820); assay: Binding affinity to Mcl-1/Bak (unknown origin) assessed as inhibition constant by fluorescence polarization assay; type: protein-complex assay
T2 sequence (Q07820 whole entry, one chain of several): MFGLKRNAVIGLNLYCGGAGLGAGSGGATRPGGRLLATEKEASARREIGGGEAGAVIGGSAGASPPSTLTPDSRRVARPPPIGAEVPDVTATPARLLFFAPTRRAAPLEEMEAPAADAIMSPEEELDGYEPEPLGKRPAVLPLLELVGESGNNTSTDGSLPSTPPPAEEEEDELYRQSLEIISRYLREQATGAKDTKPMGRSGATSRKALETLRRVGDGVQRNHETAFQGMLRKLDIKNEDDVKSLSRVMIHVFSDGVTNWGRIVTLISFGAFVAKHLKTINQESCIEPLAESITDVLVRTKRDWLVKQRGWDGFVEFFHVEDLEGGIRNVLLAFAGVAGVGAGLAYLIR

Bcl-xL/BAK [4] = biological target: T3, Bcl-xL/BAK (Homo sapiens, UniProt Q07817); assay: Binding affinity to Bcl-xL/Bak (unknown origin) assessed as dissociation constant by ITC method; type: protein assay
T3 sequence (Q07817 whole entry, one chain of several): as the sequence (Q07817 whole entry) above

[5] = biological target: Induced myeloid leukemia cell differentiation protein Mcl-1 (Homo sapiens, UniProt Q07820); assay: Binding affinity to wildtype Mcl-1 (unknown origin) assessed as dissociation constant by SPR analysis
Sequence of Induced myeloid leukemia cell differentiation protein Mcl-1 (Q07820 whole entry): as the sequence (Q07820 whole entry, one chain of several) above

[6] = biological target: T4, Induced myeloid leukemia cell differentiation protein Mcl-1/Bcl-2-like protein 11 (Homo sapiens, UniProt Q07820); assay: Inhibition of Mcl-1/Bim (unknown origin) by ELISA method; type: protein assay
T4 sequence (Q07820 whole entry): as the sequence (Q07820 whole entry, one chain of several) above
T4 sequence (O43521 whole entry, further chain): as the sequence (O43521 whole entry, further chain) above

[7] = Binding affinity to Mcl-1 H224A (unknown origin) assessed as dissociation constant by SPR analysis; parameters: species or system Homo sapiens
K562 = assay: Cytotoxicity against human K562 cells; type: functional, cell-based
HeLa = assay: Cytotoxicity against human HeLa cells; type: functional, cell-based
BCL2/BCL2L11 = BCL2/BCL2L11 (Homo sapiens, UniProt P10415); assay: Inhibition of Bcl-2/Bim (unknown origin) by ELISA method; type: protein assay
Sequence of BCL2/BCL2L11 (P10415 whole entry): as the sequence (P10415 whole entry) above
Sequence of BCL2/BCL2L11 (O43521 whole entry, further chain): as the sequence (O43521 whole entry, further chain) above

[8] = biological target: T1, Bcl-xL/Bcl-2-like protein 11; assay: Inhibition of Bcl-xL/Bim (unknown origin) by ELISA method; type: protein assay
MCL1-BAK1 complex [9] = biological target: T2, MCL1-BAK1 complex; assay: Inhibition of Mcl-1/Bak (unknown origin) by fluorescence polarization assay; type: protein-complex assay
Bcl-xL/BAK [10] = biological target: T3, Bcl-xL/BAK; assay: Inhibition of Bcl-xL/Bak (unknown origin) by fluorescence polarization assay; type: protein assay
[11] = Inhibition of Mcl-1 (172 - 327 residues)/Noxa (unknown origin) by fluorescence polarization assay; parameters: species or system Homo sapiens
[12] = Cytotoxicity against human MOLP8 cells by caspase-3/7 activation; type: functional, cell-based; settings: MOLP-8
[13] = biological target: T4, Induced myeloid leukemia cell differentiation protein Mcl-1/Bcl-2-like protein 11; assay: Inhibition of GST-tagged Mcl-1/Bim (unknown origin) incubated for 15 mins followed by Bim addition measured after 2 hrs by ELISA method; type: protein assay
[14] = biological target: T1, Bcl-xL/Bcl-2-like protein 11; assay: Inhibition of GST-tagged Bcl-xL/Bim (unknown origin) incubated for 15 mins followed by Bim addition measured after 2 hrs by ELISA method; type: protein assay
[15] = biological target: Apoptosis regulator Bcl-2/Bcl-2 homologous antagonist/killer (Homo sapiens, UniProt P10415+Q16611); assay: Inhibition of Bcl-2/Bak (unknown origin); type: protein assay
Sequence of Apoptosis regulator Bcl-2/Bcl-2 homologous antagonist/killer (P10415 whole entry, one chain of several): as the sequence (P10415 whole entry) above

BCL2A1/BAK1 = biological target: T5, BCL2A1/BAK1 (Homo sapiens, UniProt Q16548+Q16611); assay: Inhibition of Bfl-1/Bak (unknown origin); type: protein assay
T5 sequence (Q16611 whole entry): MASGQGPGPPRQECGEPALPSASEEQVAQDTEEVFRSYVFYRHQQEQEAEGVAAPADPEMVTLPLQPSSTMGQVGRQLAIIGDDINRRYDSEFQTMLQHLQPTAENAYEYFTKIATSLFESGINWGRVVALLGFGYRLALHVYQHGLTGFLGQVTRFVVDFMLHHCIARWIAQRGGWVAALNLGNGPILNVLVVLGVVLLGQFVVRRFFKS
T5 sequence (Q16548 whole entry): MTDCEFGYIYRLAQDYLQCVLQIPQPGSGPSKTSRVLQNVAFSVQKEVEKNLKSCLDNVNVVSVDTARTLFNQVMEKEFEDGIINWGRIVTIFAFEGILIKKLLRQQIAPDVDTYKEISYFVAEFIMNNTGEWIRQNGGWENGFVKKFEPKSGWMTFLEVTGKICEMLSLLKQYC

Sequence of Induced myeloid leukemia cell differentiation protein Mcl-1/BH3-interacting domain death agonist (Q07820 whole entry, the tested form may be a part): as the sequence (Q07820 whole entry, one chain of several) above
Sequence of Induced myeloid leukemia cell differentiation protein Mcl-1/BH3-interacting domain death agonist (P55957 whole entry, further chain, the tested form may be a part): as the sequence (P55957 whole entry, further chain) above

SMILES: CCOC(=O)C1=CN=c2s/c(=C\c3cn(Cc4ccccc4)c4ccccc34)c(=O)n2[C@@H]1c1cccc(C(C)=O)c1
- Ki [1]: 290 nM
- Ki (BCL2/BID): 540 nM
- Ki [2]: 290 nM

SMILES: CCOC(=O)C1=CN=c2s/c(=C\c3cn(Cc4ccccc4)c4ccccc34)c(=O)n2[C@H]1c1cccc(C(C)=O)c1
- Ki [1]: 740 nM
- Ki (BCL2/BID): 590 nM
- Ki [2]: 340 nM

SMILES: COc1cccc(-c2ccc(/C=C3\SC(=S)N([C@@H](Cc4ccccc4)C(=O)O)C3=O)cn2)c1OC
- Ki (MCL1-BAK1 complex [3]): 6900 nM
- Kd (Bcl-xL/BAK [4]): 3400 nM

SMILES: O=C1CCC(N2C(=O)c3cccc4c(Sc5ccc(Br)cc5)ccc(c34)C2=O)C(=O)N1 (stereo not given)
- Kd [5]: 150 nM
- IC50 [6]: 150 nM
- Kd [7]: 130 nM
- IC50 (K562): 7300 nM
- IC50 (HeLa): 10400 nM
- IC50 (BCL2/BCL2L11): 430 nM

SMILES: CC(C)COc1nc(Oc2ccccc2)ccc1C(=O)O
- Ki (MCL1-BAK1 complex [3]): 261000 nM

SMILES: N#CC1=C(C#N)c2ccc(N3CCSCC3)c3cccc(c23)C1=O
- Ki [1]: 58 nM
- Ki (BCL2/BID): 310 nM

SMILES: O=C1c2ccc(OS(=O)(=O)C(F)(F)F)cc2Oc2c(Cl)c(Cl)c(C(=O)c3ccc(OS(=O)(=O)C(F)(F)F)cc3O)n2-c2c1[nH]c(Cl)c2Cl
- IC50 [6]: 1400 nM
- IC50 [8]: 2300 nM

SMILES: O=C(COc1ccc2ccccc2c1)NCCN1C(=O)c2cccc3c(Sc4ccc(Br)cc4)ccc(c23)C1=O
- Kd [5]: 150 nM
- IC50 [6]: 510 nM
- Kd [7]: 1130 nM
- IC50 (K562): 10100 nM
- IC50 (HeLa): 43200 nM
- IC50 (BCL2/BCL2L11): 9460 nM

SMILES: CC(C)C(C(=O)O)N1C(=O)/C(=C/c2ccc(Br)cc2)SC1=S (stereo not given)
- IC50 (MCL1-BAK1 complex [9]): 110000 nM
- IC50 (Bcl-xL/BAK [10]): 91000 nM
- Ki (MCL1-BAK1 complex [3]): 44000 nM
- Kd (Bcl-xL/BAK [4]): 8700 nM

SMILES: Cc1ccc(-c2ccc(C(=O)O)c(NS(=O)(=O)c3ccc(Oc4ccccc4)cc3)c2)c2ccccc12
- IC50 [11]: 500 nM

SMILES: COC(=O)c1ccc(C(=O)c2c(Cl)c(Cl)c3n2-c2c([nH]c(Cl)c2Cl)C(=O)c2ccc(C(=O)OC)cc2O3)c(O)c1
- IC50 [6]: 4300 nM
- IC50 [8]: 3400 nM

SMILES: Cc1cc(OCCCS(=O)(=O)N2CC(C(=O)O)Cc3ccccc32)cc(C)c1Cl (stereo not given)
- Ki (MCL1-BAK1 complex [3]): 7770 nM

SMILES: Cc1c(-c2cccc3c(CCCOc4cccc5ccccc45)c(C(=O)O)[nH]c23)c(COc2ccc(B(O)O)c(C=O)c2)nn1C
- IC50 [12]: 460 nM

SMILES: CCOC(=O)CSc1ccc(C(=O)c2[nH]c(Cl)c(Cl)c2-n2cc(Cl)c(Cl)c2C(=O)c2ccc(SCC(=O)OCC)cc2O)c(O)c1
- IC50 [13]: 1800 nM
- IC50 [14]: 1200 nM

SMILES: Cc1c(-c2cccc3c(CCCOc4cccc5ccccc45)c(C(=O)O)[nH]c23)c(COc2ccc(B(O)O)cc2)nn1C
- IC50 [12]: > 11000 nM

SMILES: Cc1ccc(-c2ccc(C(=O)O)c(NS(=O)(=O)c3ccc(OCCn4cccn4)cc3)c2)c2ccccc12
- IC50 [11]: 30 nM

SMILES: COC(=O)C1=CN=c2s/c(=C\c3cn(Cc4ccccc4)c4ccccc34)c(=O)n2[C@@H]1c1ccc(C(C)=O)cc1
- Ki [1]: 420 nM
- Ki (BCL2/BID): 1000 nM
- Ki [2]: 550 nM

SMILES: CC1=C[C@@H](/C=C(\C)c2ccc(C(=O)O)cc2)[C@]2(C(=O)O)C=C[C@@H](CCOC(=O)c3ccc(Oc4cccnc4)cc3)C[C@@H]2C1
- Ki (MCL1-BAK1 complex [3]): 153 nM
- Ki [1]: 106 nM

SMILES: CC(=O)c1cc(OCc2nn(C)c(C)c2-c2cccc3c(CCCOc4cccc5ccccc45)c(C(=O)O)[nH]c23)ccc1B(O)O
- IC50 [12]: 170 nM

SMILES: COC(=O)C1=CN=c2s/c(=C\c3cn(Cc4ccccc4)c4ccccc34)c(=O)n2[C@H]1c1ccc(C(C)=O)cc1
- Ki [1]: 320 nM
- Ki (BCL2/BID): 940 nM
- Ki [2]: 280 nM

SMILES: Cc1cc2c(C(=O)NC(C)c3ccc(Cl)cc3)c(O)c(O)cc2c(O)c1-c1c(C)cc2c(C(=O)NC(C)c3ccc(Cl)cc3)c(O)c(O)cc2c1O (stereo not given)
- IC50 [15]: 490 nM
- IC50 (BCL2A1/BAK1): 400 nM

SMILES: C=C(c1ccc(S(=O)(=O)Nc2cc(-c3ccc(C)c4ccccc34)ccc2C(=O)O)cc1)C(C)C
- IC50 [11]: 80 nM
